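1) Cells in 96-well plates. 2) Compound, 48 h, 5 concentrations. 3) Linear interpolation between surrounding doses. 4) Unreached endpoint = highest concentration. GI50 is the concentration that inhibits growth by half. TGI is the concentration that stops growth completely.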

For one test, the system named is KM12 colon. Put plainly: inhibition of tumour cell growth, NCI panel, 48 h.
As to `O=c1cc(-c2ccccc2)oc2cc(OCCCOc3ccc4c(=O)cc(-c5ccccc5)oc4c3)ccc12`, the TGI is over 100 µM.

Turning to `CCOC(=O)c1cc2nc3ccccc3c(=O)n2c2ccccc12`, the TGI was over 10 µM.

The molecule `Clc1ccc(C(c2ccc(Cl)cc2)c2ccccn2)cc1` had a TGI of 42.5 µM.

`CC(C)=Cc1cc(C(=O)Nc2ccc(Cl)c(Cl)c2)nc(N)n1`: the TGI was over 100 µM.

Consider `Cn1cnc([N+](=O)[O-])c1Sc1nc2ccccc2[nH]1`, for which the TGI amounted to 48.4 µM.

For `CCCCCCN(CCCCCC)C(=O)Cc1c2n(c3ccccc13)Cc1ccccc1-2`, the TGI was over 100 µM.

In turn, `CCCCCCCCC/C=C1\CCC(CN2CCOCC2)C1=O` (centres undefined) came in with a TGI of 5.2 µM.

Molecule `CC(=O)OC1COC(n2ccc3cc(Br)c([N+](=O)[O-])cc32)C(OC(C)=O)C1OC(C)=O` (centres undefined) displayed a TGI of over 100 µM.

Molecule `CCOC(=O)NC(=O)c1cn(CCCO)c(=O)[nH]c1=O` gave a TGI of over 100 µM.

`CN(C)c1nc(=Nc2ccc(N=c3nc(N(C)C)ss3)cc2)ss1`: the TGI is over 100 µM.

`O=[N+]([O-])C(/C=C(\Cl)n1nnc2ccccc21)=C(/Cl)n1nnc2ccccc21` came in with a TGI of over 100 µM.

The molecule `CCc1cc(Cc2cc(CC)c(NC(=O)C(=O)Cc3ccccn3)c(CC)c2Cl)c(Cl)c(CC)c1NC(=O)C(=O)Cc1ccccn1` yielded a TGI of over 100 µM.

For the molecule `C[Si](C)(C)C1(Sc2ccccc2)SCCCS1`, the TGI is over 100 µM.

On to `c1ccc(COc2cccc3ccc[n+](Cc4ccccc4)c23)cc1`, for which the TGI amounted to 15.7 µM.

Take `ClCc1cccc(Cn2cnc3ncnc(Cl)c32)c1`: the GI50 is 1.85 µM and the TGI worked out at 3.32 µM.

The molecule `CC1(C)C2CCC(=O)C1CC2` (centres undefined) registered a TGI of over 100 µM.

With `O=S1(=O)OCCOS(=O)(=O)C1Br`, the TGI is over 100 µM.

On to `CCOC(=O)C(=C=C=C(c1ccccc1)c1ccccc1)C(=O)OCC`, for which the TGI was found to be 46.1 µM.

In turn, `CC1=CC(O)(c2ccc(-c3ccccc3Cl)cc2)OC1=O` (centres undefined) showed a TGI of over 100 µM.

Regarding `OCCCCCNCc1cc2cc3c(cc2c2cc(OCc4ccccc4)ccc12)OCO3`, the GI50 is 1.62 µM and the TGI worked out at 2.97 µM.

Molecule `C/C(=N\NC(=S)NC(CCC(=O)O)C(=O)O)c1ccccn1` (centres undefined) came in with a TGI of over 100 µM.

In turn, `C#CC1(O)CCC2C3CCc4cc(Oc5nc(F)nc(-c6c7ccccc7c7sc8ccccc8n67)n5)ccc4C3CC[C@@]21C` (some centres undefined) registered a TGI of over 100 µM.

With `Cc1c2c(nn1-c1ccc(S(=O)(=O)/N=C3\SCCC(=O)N3c3ccccc3)cc1)-c1ccccc1CC2`, the GI50 was over 100 µM and the TGI is over 100 µM.

With `Cc1ccc(NC(=O)c2cc3cc(N=Nc4ccccc4C(=O)O)ccc3oc2=O)cc1`, the TGI was over 100 µM.

`COc1ccc(S(=O)(=O)NNS(C)(=O)=O)cc1`: the TGI was over 100 µM.

As for `O=C(/C=C\c1ccc(Cl)c(Cl)c1)c1ccc(Cl)cc1Cl`, the TGI stood at 25.2 µM.

Consider `C=C1C(=O)O[C@H]2[C@H]1CC/C(COC(=O)c1c[nH]c3ccccc13)=C\CC[C@@]1(C)O[C@@H]21`, for which the GI50 is 0.477 µM and the TGI was determined as 2.36 µM.

Regarding `O=C1NCC2(CCN(CCCC3(c4ccc(F)cc4)OCCO3)CC2)N1c1ccccc1`, the TGI is over 100 µM.

As to `CC(=O)/C(=C\c1cccc([N+](=O)[O-])c1)C(=O)Nc1ccccc1C`, the TGI is over 100 µM.

As to `CCN1c2ccccc2C(C(SC)S(=O)(=O)c2ccc(C)cc2)c2c1[nH]c(=O)n(C)c2=O` (centres undefined), the TGI was over 100 µM.

`COC(OC)C(C)CC(=O)N(C)C` (centres undefined) displayed a TGI of over 100 µM.

A further test concerns OVCAR-4 ovarian. Kind of test: inhibition of tumour cell growth, NCI panel, 48 h.
For `O=c1cc(-c2ccccc2)oc2cc(OCCCOc3ccc4c(=O)cc(-c5ccccc5)oc4c3)ccc12`, the TGI is over 100 µM.

Turning to `CCOC(=O)c1cc2nc3ccccc3c(=O)n2c2ccccc12`, the TGI is over 10 µM.

For `Clc1ccc(C(c2ccc(Cl)cc2)c2ccccn2)cc1`, the TGI turned out to be 70.2 µM.

With `CC(C)=Cc1cc(C(=O)Nc2ccc(Cl)c(Cl)c2)nc(N)n1`, the TGI was over 100 µM.

The molecule `Cn1cnc([N+](=O)[O-])c1Sc1nc2ccccc2[nH]1` returned a TGI of over 100 µM.

In turn, `CCCCCCN(CCCCCC)C(=O)Cc1c2n(c3ccccc13)Cc1ccccc1-2` registered a TGI of over 100 µM.

Consider `CCCCCCCCC/C=C1\CCC(CN2CCOCC2)C1=O` (centres undefined), for which the TGI worked out at 12 µM.

For `CCOC(=O)NC(=O)c1cn(CCCO)c(=O)[nH]c1=O`, the TGI was over 100 µM.

The molecule `CN(C)c1nc(=Nc2ccc(N=c3nc(N(C)C)ss3)cc2)ss1` showed a TGI of 48.1 µM.

With `O=[N+]([O-])C(/C=C(\Cl)n1nnc2ccccc21)=C(/Cl)n1nnc2ccccc21`, the TGI was over 100 µM.

Turning to `CCc1cc(Cc2cc(CC)c(NC(=O)C(=O)Cc3ccccn3)c(CC)c2Cl)c(Cl)c(CC)c1NC(=O)C(=O)Cc1ccccn1`, the TGI was over 100 µM.

`C[Si](C)(C)C1(Sc2ccccc2)SCCCS1`: the TGI is over 100 µM.

In turn, `c1ccc(COc2cccc3ccc[n+](Cc4ccccc4)c23)cc1` returned a TGI of 45.7 µM.

Take `ClCc1cccc(Cn2cnc3ncnc(Cl)c32)c1`: the GI50 is 4.17 µM and the TGI came out at 16 µM.

The molecule `O=S1(=O)OCCOS(=O)(=O)C1Br` registered a TGI of over 100 µM.

`CCOC(=O)C(=C=C=C(c1ccccc1)c1ccccc1)C(=O)OCC` registered a TGI of 33.7 µM.

Regarding `CC1=CC(O)(c2ccc(-c3ccccc3Cl)cc2)OC1=O` (centres undefined), the TGI is over 100 µM.

`OCCCCCNCc1cc2cc3c(cc2c2cc(OCc4ccccc4)ccc12)OCO3`: the GI50 was 1.87 µM and the TGI was found to be 3.59 µM.

For the molecule `C/C(=N\NC(=S)NC(CCC(=O)O)C(=O)O)c1ccccn1` (centres undefined), the TGI was over 100 µM.

With `C#CC1(O)CCC2C3CCc4cc(Oc5nc(F)nc(-c6c7ccccc7c7sc8ccccc8n67)n5)ccc4C3CC[C@@]21C` (some centres undefined), the TGI was over 100 µM.

For the molecule `Cc1c2c(nn1-c1ccc(S(=O)(=O)/N=C3\SCCC(=O)N3c3ccccc3)cc1)-c1ccccc1CC2`, the GI50 was over 100 µM and the TGI was over 100 µM.

For `COc1ccc(S(=O)(=O)NNS(C)(=O)=O)cc1`, the TGI is over 100 µM.

Turning to `O=C(/C=C\c1ccc(Cl)c(Cl)c1)c1ccc(Cl)cc1Cl`, the TGI was 88.7 µM.

With `C=C1C(=O)O[C@H]2[C@H]1CC/C(COC(=O)c1c[nH]c3ccccc13)=C\CC[C@@]1(C)O[C@@H]21`, the GI50 was 0.258 µM and the TGI came out at 0.842 µM.

Turning to `O=C1NCC2(CCN(CCCC3(c4ccc(F)cc4)OCCO3)CC2)N1c1ccccc1`, the TGI was over 100 µM.

The values above are taken from PubChem BioAssay (NCI).
